Measured values reported in ChEMBL document CHEMBL1143057, “Small molecule designed to target metal binding site in the alpha2I domain inhibits integrin function” (J Med Chem, 2007).
Active and inactive are the calls of the source. No cut-off for these calls is given here.

Key:
[1] = target: Integrin alpha-1 (Homo sapiens) (UniProt P56199); assay: Inhibition of integrin alpha-1 binding to collagen 1 at 50 uM
Integrin alpha-2 = target: T1, Integrin alpha-2 (Homo sapiens, UniProt P17301); assay: Inhibition of integrin alpha-2 domain binding to collagen 1 by Europium-labeled anti-GST assay
T1 sequence (P17301 whole entry): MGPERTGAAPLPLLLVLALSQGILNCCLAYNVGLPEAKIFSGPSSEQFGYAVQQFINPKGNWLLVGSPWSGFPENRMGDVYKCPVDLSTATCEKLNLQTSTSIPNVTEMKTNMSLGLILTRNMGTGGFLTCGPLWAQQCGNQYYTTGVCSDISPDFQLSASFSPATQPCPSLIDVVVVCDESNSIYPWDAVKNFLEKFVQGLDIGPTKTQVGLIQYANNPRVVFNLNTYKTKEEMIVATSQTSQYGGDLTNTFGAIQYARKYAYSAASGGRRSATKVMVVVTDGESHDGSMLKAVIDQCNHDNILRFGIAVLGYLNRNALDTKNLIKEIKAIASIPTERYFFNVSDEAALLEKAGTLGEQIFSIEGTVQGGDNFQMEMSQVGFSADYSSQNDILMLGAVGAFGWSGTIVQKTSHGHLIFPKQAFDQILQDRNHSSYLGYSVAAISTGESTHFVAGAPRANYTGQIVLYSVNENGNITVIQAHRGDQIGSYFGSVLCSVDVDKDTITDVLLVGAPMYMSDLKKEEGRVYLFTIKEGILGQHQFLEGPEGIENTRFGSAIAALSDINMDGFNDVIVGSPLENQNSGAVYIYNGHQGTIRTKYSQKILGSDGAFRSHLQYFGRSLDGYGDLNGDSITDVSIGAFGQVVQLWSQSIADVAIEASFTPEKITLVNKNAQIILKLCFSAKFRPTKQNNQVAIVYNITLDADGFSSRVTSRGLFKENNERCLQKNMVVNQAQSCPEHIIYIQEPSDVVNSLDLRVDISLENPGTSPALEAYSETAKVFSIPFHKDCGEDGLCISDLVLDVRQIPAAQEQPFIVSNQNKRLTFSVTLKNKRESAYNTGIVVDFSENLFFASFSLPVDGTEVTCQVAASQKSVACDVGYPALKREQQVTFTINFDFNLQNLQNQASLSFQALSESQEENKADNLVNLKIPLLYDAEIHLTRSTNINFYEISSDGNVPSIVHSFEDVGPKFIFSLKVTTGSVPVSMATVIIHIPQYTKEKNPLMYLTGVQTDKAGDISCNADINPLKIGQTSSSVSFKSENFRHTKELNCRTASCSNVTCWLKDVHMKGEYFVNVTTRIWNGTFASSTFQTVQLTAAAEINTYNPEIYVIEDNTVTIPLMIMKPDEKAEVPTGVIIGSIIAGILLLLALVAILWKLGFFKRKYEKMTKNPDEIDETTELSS

[2] = target: Integrin alpha-2 (Homo sapiens) (UniProt P17301); assay: Inhibition of integrin alpha-2 binding to collagen 4 at 50 uM
[3] = target: Integrin alpha-1 (Homo sapiens) (UniProt P56199); assay: Inhibition of integrin alpha-1 binding to collagen 4 at 50 uM
CHO [4] = assay: Cytotoxicity against CHO cells at =< 50 uM; type: cell-based, Cricetulus griseus; settings: chinese hamster
[5] = target: T2, Integrin alpha-11 (Homo sapiens) (UniProt Q9UKX5); assay: Inhibition of integrin alpha-11 binding to collagen 1 at 50 uM
T2 sequence (whole entry): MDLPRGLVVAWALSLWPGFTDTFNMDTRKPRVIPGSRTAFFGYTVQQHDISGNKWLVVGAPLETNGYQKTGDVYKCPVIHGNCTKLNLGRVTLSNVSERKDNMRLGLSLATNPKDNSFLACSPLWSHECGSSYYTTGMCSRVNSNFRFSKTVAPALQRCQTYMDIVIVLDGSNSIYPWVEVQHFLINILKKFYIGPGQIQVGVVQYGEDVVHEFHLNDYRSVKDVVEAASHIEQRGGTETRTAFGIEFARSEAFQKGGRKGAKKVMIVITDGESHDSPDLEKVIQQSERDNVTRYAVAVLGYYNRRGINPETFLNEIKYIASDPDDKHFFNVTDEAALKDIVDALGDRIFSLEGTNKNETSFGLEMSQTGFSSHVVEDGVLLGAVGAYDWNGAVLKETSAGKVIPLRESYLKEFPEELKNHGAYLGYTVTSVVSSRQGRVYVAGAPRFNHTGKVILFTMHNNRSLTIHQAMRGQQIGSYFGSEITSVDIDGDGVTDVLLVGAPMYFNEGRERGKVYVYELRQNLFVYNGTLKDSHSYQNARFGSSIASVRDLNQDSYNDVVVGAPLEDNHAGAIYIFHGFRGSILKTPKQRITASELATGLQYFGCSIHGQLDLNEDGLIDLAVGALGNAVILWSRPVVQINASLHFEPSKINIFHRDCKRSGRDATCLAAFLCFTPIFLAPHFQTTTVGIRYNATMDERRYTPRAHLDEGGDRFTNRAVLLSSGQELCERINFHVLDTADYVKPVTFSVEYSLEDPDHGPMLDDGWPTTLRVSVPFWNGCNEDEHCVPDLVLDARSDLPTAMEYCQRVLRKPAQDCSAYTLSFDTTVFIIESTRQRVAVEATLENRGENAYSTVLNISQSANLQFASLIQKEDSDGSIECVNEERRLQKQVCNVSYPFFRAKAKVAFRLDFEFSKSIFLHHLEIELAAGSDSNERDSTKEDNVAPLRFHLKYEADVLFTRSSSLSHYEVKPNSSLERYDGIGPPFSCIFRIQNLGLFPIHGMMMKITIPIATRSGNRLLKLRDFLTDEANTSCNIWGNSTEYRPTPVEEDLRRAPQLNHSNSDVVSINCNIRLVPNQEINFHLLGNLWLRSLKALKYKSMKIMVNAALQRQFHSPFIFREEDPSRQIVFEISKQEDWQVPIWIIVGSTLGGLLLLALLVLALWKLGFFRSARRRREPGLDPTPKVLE

[6] = target: Integrin alpha-2 (Homo sapiens) (UniProt P17301); assay: Inhibition of integrin alpha-2 domain binding to collagen 1 by Europium-labeled anti-GST assay relative to control; settings: concentration not given here
CHO [7] = assay: Inhibition of integrin alpha-2 expressing CHO cell adhesion to collagen 1 at 10 uM; type: functional; settings: Cricetulus griseus
[8] = target: T3, Integrin alpha-10 (Homo sapiens) (UniProt O75578); assay: Inhibition of integrin alpha-10 binding to collagen 1 at 50 uM
T3 sequence (whole entry): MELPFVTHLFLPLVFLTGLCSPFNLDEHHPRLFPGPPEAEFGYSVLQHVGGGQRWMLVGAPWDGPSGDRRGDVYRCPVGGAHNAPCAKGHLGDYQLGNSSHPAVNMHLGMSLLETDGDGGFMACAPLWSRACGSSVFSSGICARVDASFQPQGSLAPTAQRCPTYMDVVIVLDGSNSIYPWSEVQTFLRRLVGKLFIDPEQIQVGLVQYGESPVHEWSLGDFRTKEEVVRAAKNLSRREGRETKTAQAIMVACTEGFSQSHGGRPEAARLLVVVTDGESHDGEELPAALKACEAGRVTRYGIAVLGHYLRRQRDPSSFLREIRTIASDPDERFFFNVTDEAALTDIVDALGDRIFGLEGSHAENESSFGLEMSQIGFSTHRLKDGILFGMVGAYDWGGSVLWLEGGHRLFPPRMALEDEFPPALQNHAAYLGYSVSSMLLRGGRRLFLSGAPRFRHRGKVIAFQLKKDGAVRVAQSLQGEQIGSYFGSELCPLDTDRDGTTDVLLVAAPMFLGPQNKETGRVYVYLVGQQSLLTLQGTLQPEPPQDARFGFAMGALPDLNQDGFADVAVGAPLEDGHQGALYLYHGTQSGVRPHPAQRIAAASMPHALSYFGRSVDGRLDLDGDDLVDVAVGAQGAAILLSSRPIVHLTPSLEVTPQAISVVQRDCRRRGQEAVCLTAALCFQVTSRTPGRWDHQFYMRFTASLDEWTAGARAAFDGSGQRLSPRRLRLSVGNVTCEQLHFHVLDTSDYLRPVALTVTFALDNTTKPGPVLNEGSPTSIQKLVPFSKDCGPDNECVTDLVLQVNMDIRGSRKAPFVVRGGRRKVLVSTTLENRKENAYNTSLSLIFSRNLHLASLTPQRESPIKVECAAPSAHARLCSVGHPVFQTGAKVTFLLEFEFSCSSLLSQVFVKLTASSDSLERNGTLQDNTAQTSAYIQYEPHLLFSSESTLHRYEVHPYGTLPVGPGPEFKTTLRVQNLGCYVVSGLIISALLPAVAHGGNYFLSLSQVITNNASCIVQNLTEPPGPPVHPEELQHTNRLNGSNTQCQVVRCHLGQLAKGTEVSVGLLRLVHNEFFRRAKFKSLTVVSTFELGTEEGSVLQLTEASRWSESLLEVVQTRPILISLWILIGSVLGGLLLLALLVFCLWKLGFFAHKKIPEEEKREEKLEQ

CHO [9] = assay: Cytotoxicity against CHO cells at =< 200 uM; type: cell-based, Cricetulus griseus; settings: chinese hamster
CHO [10] = assay: Inhibition of integrin alpha2 Y285F beta-1 mutant binding to collagen 1 in CHO cells; type: cell-based; settings: Homo sapiens
[11] = Inhibition of integrin alpha-2 E318W mutant binding to collagen 1 by Europium-labeled anti-GST assay; set-up: species or system Homo sapiens
[12] = Inhibition of integrin alpha-2 E318W mutant binding to collagen 4 by Europium-labeled anti-GST assay; set-up: species or system Homo sapiens

Sequence of Integrin alpha-1 (Homo sapiens) (P56199 whole entry): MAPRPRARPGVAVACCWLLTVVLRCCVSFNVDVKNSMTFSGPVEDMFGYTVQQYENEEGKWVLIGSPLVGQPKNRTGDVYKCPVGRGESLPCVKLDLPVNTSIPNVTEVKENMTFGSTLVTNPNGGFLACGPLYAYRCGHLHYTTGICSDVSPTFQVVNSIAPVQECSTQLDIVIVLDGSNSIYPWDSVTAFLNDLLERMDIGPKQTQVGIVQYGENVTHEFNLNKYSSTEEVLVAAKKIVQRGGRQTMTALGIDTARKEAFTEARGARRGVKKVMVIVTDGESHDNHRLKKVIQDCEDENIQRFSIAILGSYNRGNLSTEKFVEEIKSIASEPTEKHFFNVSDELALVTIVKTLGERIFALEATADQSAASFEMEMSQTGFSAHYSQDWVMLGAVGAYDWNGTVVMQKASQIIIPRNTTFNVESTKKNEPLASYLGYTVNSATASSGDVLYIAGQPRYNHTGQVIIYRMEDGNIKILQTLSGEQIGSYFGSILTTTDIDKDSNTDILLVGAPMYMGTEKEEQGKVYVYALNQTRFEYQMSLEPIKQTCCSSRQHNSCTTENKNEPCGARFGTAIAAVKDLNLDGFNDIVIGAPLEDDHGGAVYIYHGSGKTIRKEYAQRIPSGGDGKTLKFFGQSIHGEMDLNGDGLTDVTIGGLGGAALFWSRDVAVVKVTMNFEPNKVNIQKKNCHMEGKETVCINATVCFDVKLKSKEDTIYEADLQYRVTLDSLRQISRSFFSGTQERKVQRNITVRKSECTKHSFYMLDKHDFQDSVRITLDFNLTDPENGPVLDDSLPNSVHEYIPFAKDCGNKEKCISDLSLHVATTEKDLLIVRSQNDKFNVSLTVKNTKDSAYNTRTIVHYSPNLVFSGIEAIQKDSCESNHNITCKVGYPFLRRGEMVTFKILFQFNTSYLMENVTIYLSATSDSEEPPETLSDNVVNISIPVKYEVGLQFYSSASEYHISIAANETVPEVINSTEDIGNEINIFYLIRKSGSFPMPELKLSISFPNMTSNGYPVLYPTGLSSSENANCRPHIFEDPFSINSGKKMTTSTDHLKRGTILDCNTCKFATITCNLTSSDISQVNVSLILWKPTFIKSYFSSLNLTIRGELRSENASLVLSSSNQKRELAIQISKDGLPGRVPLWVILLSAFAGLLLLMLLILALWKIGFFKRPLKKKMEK

| Structure (SMILES) | Activity (CHO [4]) | inhibition [6] | inhibition at 10 µM (CHO [7]) | Activity (CHO [9]) | also measured |
| --- | --- | --- | --- | --- | --- |
| CCc1cc(O)c2c(O)c3c(cc2c1C(=O)OC)C(=O)c1cccc(O)c1C3=O |  |  |  |  | Activity [1]: Active; IC50 (Integrin alpha-2): 50 µM; Activity [2]: Active; Activity [3]: Active |
| COC(=O)c1c(C(C)C)cc(O)c2c(O)c3c(c(O)c12)C(=O)c1cccc(O)c1C3=O | Non-toxic | 90% | 40% |  | Activity [5]: Active; Activity [8]: Active |
| CCC1(O)CC(=O)c2c(O)c3c(c(O)c2C1C(=O)OC)C(=O)c1cccc(O)c1C3=O (stereo unspecified) [MAGGIEMYCIN] |  | 65% | 10% | Non-toxic |  |
| CCc1cc(NCCO)c2c(O)c3c(c(O)c2c1C(=O)OC)C(=O)c1cccc(O)c1C3=O |  | 0% | 30% | Non-toxic |  |
| CCc1cc(O)c2c(O)c3c(c(O)c2c1C(=O)OC)C(=O)c1cccc(O)c1C3=O [ANHYDROMAGGIEMYCIN] | Non-toxic | 100% | 35% |  | inhibition (CHO [10]): -3.3%; IC50 [11]: 160 µM; IC50 [12]: 131 µM |
